Experimental data as given in patent US11198687B2, “Heteroaryl allosteric modulators of nicotinic acetylcholine receptors” (Merck Sharp & Dohme Corp., priority 2017, dated 2021).
Read-outs that look alike come from different tables or passages of the source.

Target: human α7 nAChR (Homo sapiens, UniProt P36544)
Experiment: Automated patch-clamp electrophysiology functional assay (Assay A)
Format: cell-based
Conditions: IonFlux HT whole-cell population patch, HEK cell line stably expressing human RIC-3 and human α7, 40 μM acetylcholine
Protocol: The α7 nAChR positive allosteric modulator (PAM) activity of the present compounds may be tested using assays known in the art. […] The assay was performed using the IonFlux HT in a whole-cell, population patch configuration. See Golden et al. Assay Drug Dev. Technol. (2011) 9:608-619. The compounds were assessed for their ability to modulate the function of the human α7 nAChR stably expressed in a HEK cell line both in the presence, and in the absence of the natural α7 agonist acetylcholine. By performing a series of such measurements at different concentrations, the effective concentration of the α7 nAChR PAMs (EC50) was determined. See Spencer et al. Assay Drug Dev. Technol. (2012) 10:313-324.
Direct activation of α7 (agonism), and potentiation of acetylcholine-evoked α7 currents was determined as follows:
Automated Patch-Clamp Electrophysiology Functional Assay (Assay A)
Automated patch-clamp electrophysiology was performed using the IonFlux HT (Fluxion Biosciences Inc., San Francisco, Calif.) in the whole-cell, population patch configuration. Test compounds were assessed for their ability to modulate the function of the α7 nicotinic acetylcholine receptor both in the presence, and in the absence of the natural α7 agonist acetylcholine. A HEK cell line stably expressing both human RIC-3 and human α7 (PrecisION hnAChR α7/RIC-3, Eurofins Pharma, St. Charles, Mo.) was cultured in 175 cm^2 triple-layer tissue culture flasks to no more than 90% confluency in DMEM/F-12 growth media supplemented with 10% heat-inactivated fetal bovine serum, 1% non-essential amino acids, 0.625 μg/mL Puromycin, and 400 μg/mL Geneticin. Immediately prior to assay, cells were detached by first aspirating growth media, rinsing with Dulbecco's phosphate buffered saline, and then adding 10 mL of Accutase (Innovative Cell Technologies, San Diego, Calif.) to the flask and then incubating at 37° C. for 5 minutes. Detached cells were then recovered by the addition of 40 mL of CHO-serum-free media supplemented with 25 mM HEPES, and rocked gently in a 50 mL conical tube for 20 minutes prior to patch-clamp assay. […] The cell suspension was added to the cell inlet wells on an IonFlux HT population patch plate which had previously been rinsed and primed with deionized H2O. Test compounds were serially diluted in DMSO and then resuspended to the final test concentration in external recording solution, with, or without 40 μM acetylcholine added to the external recording solution; test compounds were then transferred to the lonFlux HT population patch plate. Internal recording solution (110 mM TrisPO4, 28 mM TrisBase, 0.1 mM CaCl2, 2 mM MgCl2, 11 mM EGTA, 4 mM MgATP) was added to the internal recording solution inlet wells on the IonFlux HT patch plate previously loaded with cells and test compounds, and the plate loaded into the IonFlux HT instrument. A protocol was executed on the IonFlux HT to trap the cells, break into the cells, and establish the whole-cell recording configuration; cells were voltage-clamped at a holding potential of −60 mV for the duration of the experiment, all experiments were conducted at room temperature, and the IonFlux HT injection pressure was 8 psi for solution applications. Upon establishing the whole-cell configuration, external recording solution was perfused into the recording chambers for 120 seconds and then 40 μM acetylcholine was applied for 1 second and immediately washed off with external recording solution for 60 seconds. The 40 μM acetylcholine-evoked α7 current served as the current response to which subsequent test compound effects, in the presence, or in the absence of 40 μM acetylcholine would be quantified relative to. Next, test compounds were evaluated at multiple concentrations for their ability to induce, or modulate α7 current responses; three concentrations of test compound were evaluated in ascending dose fashion per recording.

human α7 nAChR, sequence (P36544 23-502): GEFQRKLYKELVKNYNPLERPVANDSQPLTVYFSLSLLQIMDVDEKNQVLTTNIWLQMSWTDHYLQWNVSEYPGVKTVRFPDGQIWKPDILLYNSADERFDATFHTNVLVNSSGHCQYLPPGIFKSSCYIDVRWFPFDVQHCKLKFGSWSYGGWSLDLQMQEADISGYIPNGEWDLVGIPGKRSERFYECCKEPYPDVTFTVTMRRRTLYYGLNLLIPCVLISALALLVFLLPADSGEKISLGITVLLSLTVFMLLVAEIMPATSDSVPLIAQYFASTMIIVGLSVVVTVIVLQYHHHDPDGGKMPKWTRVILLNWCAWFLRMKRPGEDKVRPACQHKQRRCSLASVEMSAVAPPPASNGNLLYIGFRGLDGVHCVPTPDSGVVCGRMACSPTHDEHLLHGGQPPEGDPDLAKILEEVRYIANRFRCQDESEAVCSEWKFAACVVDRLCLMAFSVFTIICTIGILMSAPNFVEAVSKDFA

Row | Compound | EC50 (read-out: α7 nAChR Potency) [µM] | EC50 (read-out: α7 nAChR EC50) [µM]
1 | CC1(C)[C@H](c2ccc(S(N)(=O)=O)cn2)[C@H]1c1nc(-c2ccccc2)no1 [Example E3, 6-[(1R,3R)-2,2-Dimethyl-3-(3-phenyl-1,2,4-oxadiazol-5-yl)cyclopropyl]pyridine-3-sulfonamide] | 0.5 to 5 | –
2 | CC1(C)[C@@H](c2nc(C3CC(F)(F)C3)no2)[C@@H]1c1ncc(S(N)(=O)=O)s1 (racemic) [Example D6, 2-{trans-3-[3-(3,3-Difluorocyclobutyl)-1,2,4-oxadiazol-5-yl]-2,2-dimethylcyclopropyl}-1,3-thiazole-5-sulfonamide] | 5 to 50 | –
3 | CC1(C)C(c2ccc(S(N)(=O)=O)nc2)C1c1cc(-c2cccc(F)c2)on1 (single isomer, unassigned) [Example C13, 5-{trans-3-[5-(3-Fluorophenyl)isoxazol-3-yl]-2,2-dimethylcyclopropyl}pyridine-2-sulfonamide] | 0.5 to 5 | 1.1
4 | CC1(C)[C@@H](c2ccc(S(N)(=O)=O)nc2)[C@@H]1c1noc(C2CCCCC2)n1 (racemic) [Example C10, 5-[trans-3-(5-Cyclohexyl-1,2,4-oxadiazol-3-yl)-2,2-dimethylcyclopropyl]pyridine-2-sulfonamide] | 0.5 to 5 | 2.1
5 | CC1(C)[C@@H](c2ccc(S(N)(=O)=O)cn2)[C@@H]1c1nc(-c2ccccc2)no1 (racemic) [Example G2, 6-[trans-2,2-Dimethyl-3-(3-phenyl-1,2,4-oxadiazol-5-yl)cyclopropyl]pyridine-3-sulfonamide] | 0.5 to 5 | 0.97
6 | CC1(C)[C@@H](c2ccc(S(N)(=O)=O)nc2)[C@@H]1c1nnc(-c2ccc(F)cc2F)s1 (relative stereo) [Example 2, 5-{trans-3-[5-(2,4-Difluorophenyl)-1,3,4-thiadiazol-2-yl]-2,2-dimethylcyclopropyl}pyridine-2-sulfonamide] | 0.1 to 0.5 | 0.48
7 | CC1(C)[C@@H](c2ccc(S(N)(=O)=O)cn2)[C@@H]1c1nc(C2CCC2)no1 (racemic) [Example G4, 6-[trans-3-(3-Cyclobutyl-1,2,4-oxadiazol-5-yl)-2,2-dimethylcyclopropyl]pyridine-3-sulfonamide] | 0.5 to 5 | –
8 | CC1(C)[C@@H](c2ccc(S(N)(=O)=O)nc2)[C@@H]1c1cc(C2CCCC2)no1 (relative stereo) [Example 12, 5-[trans-3-(3-Cyclopentylisoxazol-5-yl)-2,2-dimethylcyclopropyl]pyridine-2-sulfonamide] | 0.5 to 5 | 1.1
9 | CC1(C)[C@H](c2ccc(S(N)(=O)=O)nc2)[C@H]1c1nc(CC2CC2)no1 [Example A13, 5-{(1R,3R)-3-[3-(Cyclopropylmethyl)-1,2,4-oxadiazol-5-yl]-2,2-dimethylcyclopropyl}pyridine-2-sulfonamide] | 0.5 to 5 | –
10 | CC1(C)C(c2ccc(S(N)(=O)=O)nc2)C1c1nc2ccccc2o1 (racemic) [Example C4, 5-[trans-3-(1,3-Benzoxazol-2-yl)-2,2-dimethylcyclopropyl]pyridine-2-sulfonamide] | 5 to 50 | 5.1
11 | CC1(C)C(c2ccc(S(N)(=O)=O)nc2)C1c1cc(-c2cccc(F)c2)no1 (racemic) [Example C3, 5-{trans-3-[3-(3-Fluorophenyl)isoxazol-5-yl]-2,2-dimethylcycpropyl}pyridine-2-sulfonamide] | 0.1 to 0.5 | 0.43
12 | CC1(C)C(c2ccc(S(N)(=O)=O)nc2)C1c1cc(-c2cccc(F)c2)on1 (single isomer, unassigned) [Example 13, 5-{trans-3-[5-(3-Fluorophenyl)isoxazol-3-yl]-2,2-dimethylcyclopropyl}pyridine-2-sulfonamide] | 0.5 to 5 | 0.77
13 | CC1(C)[C@H](c2ccc(S(N)(=O)=O)cn2)[C@H]1c1nc(C2CCCCC2)no1 [Example E7, 6-[(1R,3R)-3-(3-Cyclohexyl-1,2,4-oxadiazol-5-yl)-2,2-dimethylcyclopropyl]pyridine-3-sulfonamide] | 0.5 to 5 | –
14 | CC1(C)[C@H](c2ccc(S(N)(=O)=O)nc2)[C@H]1c1nc(C2CCCCC2)no1 [Example 7, 5-[(1R,3R)-3-(3-Cyclohexyl-1,2,4-oxadiazol-5-yl)-2,2-dimethylcyclopropyl]pyridine-2-sulfonamide] | 0.5 to 5 | 0.64
15 | NS(=O)(=O)c1ccc([C@@H]2C[C@H]2c2nc(C3CCCC3)no2)cn1 (racemic) [Example C9, 5-[trans-2-(3-Cyclopentyl-1,2,4-oxadiazol-5-yl)cyclopropyl]pyridine-2-sulfonamide] | 0.5 to 5 | –
16 | 6-[trans-3-(1,3-Benzoxazol-2-yl)-2,2-dimethylcyclopropyl]pyridine-3-sulfonamide [Example G1] | 0.5 to 5 | 0.9
17 | CC1(C)[C@H](c2ccc(S(N)(=O)=O)nc2)[C@H]1c1nc(C2CCCC2)no1 [Example A3, 5-[(1R,3R)-3-(3-Cyclopentyl-1,2,4-oxadiazol-5-yl)-2,2-dimethylcyclopropyl]pyridine-2-sulfonamide] | 0.5 to 5 | 2.9
18 | CC1(C)[C@@H](c2ccc(S(N)(=O)=O)nc2)[C@@H]1c1ncc(C2CCCC2)o1 [Example B14, 5-[(1S,3S)-3-(5-Cyclopentyl-1,3-oxazol-2-yl)-2,2-dimethylcyclopropyl]pyridine-2-sulfonamide] | 0.5 to 5 | 0.59
19 | CC(C)c1noc([C@H]2[C@H](c3ccc(S(N)(=O)=O)cn3)C2(C)C)n1 [Example F14, 6-{(1S,3S)-2,2-Dimethyl-3-[3-(propan-2-yl)-1,2,4-oxadiazol-5-yl]cyclopropyl}pyridine-3-sulfonamide] | 0.5 to 5 | 1.6
20 | CC(C)c1noc([C@H]2[C@H](c3ccc(S(N)(=O)=O)cn3)C2(C)C)n1 (racemic) [Example G3, 6-{trans-2,2-Dimethyl-3-[3-(propan-2-yl)-1,2,4-oxadiazol-5-yl]cyclopropyl}pyridine-3-sulfonamide] | 0.5 to 5 | –
21 | CC1(C)[C@H](c2ccc(S(N)(=O)=O)nc2)[C@H]1c1nc(C2CCC2)no1 [Example A12, 5-[(1R,3R)-3-(3-Cyclobutyl-1,2,4-oxadiazol-5-yl)-2,2-dimethylcyclopropyl]pyridine-2-sulfonamide] | 0.5 to 5 | –
22 | CC1(C)[C@@H](c2ccc(S(N)(=O)=O)nc2)[C@@H]1c1nc(C2CC2)no1 [Example B11, 5-[(1S,3S)-3-(3-Cyclopropyl-1,2,4-oxadiazol-5-yl)-2,2-dimethylcyclopropyl]pyridine-2-sulfonamide] | 0.5 to 5 | –
23 | CC1(C)[C@@H](c2nc(-c3cncc(F)c3)no2)[C@@H]1c1ncc(S(N)(=O)=O)s1 (racemic) [Example D3, 2-{trans-3-[3-(5-Fluoropyridin-3-yl)-1,2,4-oxadiazol-5-yl]-2,2-dimethylcyclopropyl}-1,3-thiazole-5-sulfonamide] | 0.5 to 5 | 1.6
24 | CC(C)(C)c1noc([C@H]2[C@H](c3ccc(S(N)(=O)=O)cn3)C2(C)C)n1 [Example F9, 6-[(1S,3S)-3-(3-tert-Butyl-1,2,4-oxadiazol-5-yl)-2,2-dimethylcyclopropyl]pyridine-3-sulfonamide] | 0.5 to 5 | –
25 | COc1ccc(Cl)cc1-c1noc([C@H]2[C@H](c3ccc(S(N)(=O)=O)nc3)C2(C)C)n1 [Example B2, 5-{(1S,3S)-3-[3-(5-Chloro-2-methoxyphenyl)-1,2,4-oxadiazol-5-yl]-2,2-dimethylcyclopropyl}pyridine-2-sulfonamide] | 0.5 to 5 | 1.7
